The text below walks through data of PubChem BioAssay AID1996.

Values after ≈ are worked out from the molar mass of the structure shown. Bounds are passed on as bounds.

One may read the solubility (kinetic) as solubility judged after dilution from a stock solution rather than from solid.

For this series the following is noted: buffer; pH 7.4; 200.0 µM.
For the compound `CC(C)/C=C1\CCc2c([nH]c3ccccc23)C1=O`, the solubility (kinetic) was found to be 0.0015 mg/mL (≈ 6.27 µM).
With `O=C(COc1cccc(F)c1)Nc1nc(-c2ccncc2)cs1` the figure was 0.005 mg/mL (≈ 15.2 µM).
The value for `CCCCCCCCCCCC(=O)N1CC(=O)NC(=O)C1` was 0.0025 mg/mL (≈ 8.43 µM); that for `O=C(NCCNC(=O)c1ccco1)c1ccco1` was 0.0305 mg/mL (≈ 123 µM); that for `Cc1ccc(Cl)cc1NC(=O)C1CC(=O)N(C(C)C)C1` (centres undefined) was 0.0347 mg/mL (≈ 118 µM).
Take `O=c1ccc2ccccc2n1Cc1cccc(F)c1`: the kinetic solubility is greater than 0.038 mg/mL.
`COc1ccc([N+](=O)[O-])cc1NC(=O)C(C)OC(=O)C1CCCC1` (centres undefined) yielded a solubility (kinetic) of 0.012 mg/mL (≈ 35.7 µM).
The value for `COC(=O)CSc1nnc(CCc2ccccc2)n1C` was greater than 0.0437 mg/mL; that for `CN(C)Cc1ccc(CNC(=O)COc2ccc3ccccc3c2)cc1` was 0.0447 mg/mL (≈ 128 µM).
With `O=C(CNS(=O)(=O)c1ccccc1)N1CCc2ccccc2C1` the figure was greater than 0.0496 mg/mL; with `COc1ccccc1C1CC(=O)Nc2cc(C)c(C)cc21` (centres undefined), less than 0.0006 mg/mL.
With `O=[N+]([O-])c1cccc(S(=O)(=O)NCc2ccncc2)c1` the figure was greater than 0.044 mg/mL; with `CCOc1ccc(-n2c(C)c(C(=O)OC)c3cc(O)ccc32)cc1`, less than 0.0007 mg/mL.
Turning to `O=C(NCCCn1ccnc1)c1cc2ccccc2o1`, the solubility (kinetic) is greater than 0.0404 mg/mL.
With `CCOc1nc2ccccc2cc1C=O` the figure was 0.0066 mg/mL (≈ 32.8 µM); with `CC1CN(C(=O)/C=C/c2ccc(SC(F)F)cc2)CC(C)O1` (centres undefined), 0.0363 mg/mL (≈ 111 µM).
For the compound `COc1c(S(=O)(=O)Nc2cccnc2)ccc(Cl)c1Cl`, the kinetic solubility stood at 0.0308 mg/mL (≈ 92.4 µM).
The value for `CC(=O)Nc1ccc(-c2cc(C(=O)O)c3ccccc3n2)cc1` was 0.0428 mg/mL (≈ 140 µM); that for `Cc1cccc(C(=O)NCC(=O)OCC(=O)c2ccc(C)s2)c1` was greater than 0.0497 mg/mL; that for `COc1ccc(C(=O)/C=C2/C(=O)Nc3ccccc32)c(OC)c1` was 0.0127 mg/mL (≈ 41.1 µM).
With `O=C(CNC(=O)c1ccco1)Nc1ccncc1` the figure was 0.0364 mg/mL (≈ 148 µM); with `COCC(C)n1c(C)cc(C(=O)COC(=O)c2cc(=O)[nH]c3ccccc23)c1C` (centres undefined), 0.011 mg/mL (≈ 27.7 µM); with `CSc1sccc1/C=N/O`, 0.0182 mg/mL (≈ 105 µM).
The value for `CCOc1ccccc1NC(=O)COc1cccnc1[N+](=O)[O-]` was 0.0075 mg/mL (≈ 23.6 µM); that for `COc1ccc(S(=O)(=O)NC(C)C(=O)N2CCCCCC2)cc1` (centres undefined) was greater than 0.0511 mg/mL; that for `O=C(CSC(=S)N1CCCCC1)c1c(F)cccc1F` was 0.004 mg/mL (≈ 12.7 µM).
As to `O=C(Cn1ccccc1=O)NCc1ccc(F)cc1`, the solubility (kinetic) was determined as 0.0241 mg/mL (≈ 92.6 µM).
With `CSCC[C@H](NC(=O)c1cccc(S(=O)(=O)N2CCCCC2)c1)c1nc2ccccc2[nH]1` the figure was 0.0016 mg/mL (≈ 3.39 µM); with `Cc1cc(C)n(C)c(=O)c1C#N`, greater than 0.0243 mg/mL.
The value for `Cc1ccccc1CN(C)C(C)C(=O)NCc1ccccc1` (centres undefined) was 0.0371 mg/mL (≈ 125 µM); that for `CC1CN(C(=O)CCNC(=O)c2ccccc2Cl)CC(C)O1` (centres undefined) was greater than 0.0487 mg/mL.
The value for `O=C(NC1CCCC1)C1CCN(C(=O)c2ccc(Cl)cc2)CC1` was greater than 0.0502 mg/mL.
`Brc1cc2c(cc1-c1nc3ccccc3s1)OCO2` returned a solubility (kinetic) of less than 0.0007 mg/mL.
The compound `CCOC(=O)c1ccc(NC(=O)Cc2cccs2)cc1` gave a solubility (kinetic) greater than 0.0434 mg/mL.
With `COc1ccc(C(=O)Nc2ccc(N3CCN(C)CC3)cc2)cc1` the figure was 0.0427 mg/mL (≈ 131 µM); with `O=C(NCCc1ccc(Cl)cc1Cl)c1cccnc1`, greater than 0.0443 mg/mL.
The value for `CCOC(=O)N1CCN(C(=O)/C=C/c2ccc(OC)c(OC)c2)CC1` was 0.0515 mg/mL (≈ 148 µM); that for `COc1ccccc1Nc1nc(NCc2ccco2)c2ccccc2n1.Cl` was 0.0004 mg/mL.
The value for `Cc1ccc2c3c([nH]c2c1)C(=O)CC(C)(C)S3` was less than 0.0005 mg/mL; that for `Cc1ccc(-c2cn3cccnc3n2)cc1` was greater than 0.0314 mg/mL.
In turn, `COc1cc(-c2cc(C(=O)Nc3ccc(C)c(S(=O)(=O)N4CCOCC4)c3)c3ccccc3n2)cc(OC)c1OC` had a solubility (kinetic) of 0.0067 mg/mL (≈ 11.6 µM).
The value for `Cc1ccccc1Nc1nc(N)nc(CCl)n1` was greater than 0.0375 mg/mL; that for `O=C1CCc2cc(S(=O)(=O)Nc3ccccc3Cl)ccc2N1` was greater than 0.0505 mg/mL.
On to `O=c1c2cc(Br)ccc2nc(-c2ccccc2)n1O`, for which the kinetic solubility turned out to be 0.0394 mg/mL (≈ 124 µM).
The value for `N/C(CCS(=O)(=O)c1ccc(Cl)cc1)=N\OC(=O)c1ccc(Cl)cc1` was 0.0012 mg/mL (≈ 2.99 µM); that for `CCc1cccc(C)c1N1C(=O)CC(C)(C)CC1=O` was greater than 0.0389 mg/mL; that for `COc1ccccc1N1CCN(C(=S)Nc2ccccc2)CC1` was 0.0393 mg/mL (≈ 120 µM).
With `Cc1ccc(CN2CCN(C3CCCC3)C(CCO)C2)s1` (centres undefined) the figure was 0.0437 mg/mL (≈ 142 µM); with `COc1ccc(C(=O)N[C@H](C(=O)NCc2ccccc2)C(C)C)cc1`, 0.0052 mg/mL (≈ 15.3 µM).
The value for `COc1ccc(CNc2nc3ccccc3n2C(C)C)cc1` was 0.0057 mg/mL (≈ 19.3 µM); that for `Cc1ccc(C)c(C(=O)OCC(=O)N(C)c2ccccc2)c1` was 0.038 mg/mL (≈ 128 µM).
`CC(C)(C)c1ccc(C(=O)NCC(=O)N2CCCC2)cc1` registered a solubility (kinetic) greater than 0.0433 mg/mL.
The value for `O=C(NC(=O)c1ccc(Cl)cc1)Nc1ccc(-c2cnco2)cc1` was 0.0027 mg/mL (≈ 7.9 µM); that for `CC(CCc1ccc(O)cc1)NCc1ccc(Cl)cc1Cl` (centres undefined) was greater than 0.0486 mg/mL.
For the compound `CCOC(=O)c1csc(-c2ccc([N+](=O)[O-])cc2)n1`, the solubility (kinetic) was found to be 0.0056 mg/mL (≈ 20.1 µM).
As to `CCC(=O)c1ccc(OCC(=O)N2CCN(CC(=O)Nc3ccccc3C(F)(F)F)CC2)cc1`, the solubility (kinetic) was greater than 0.0716 mg/mL.
The value for `COc1ccc(NC(=O)CSc2ccc(NC(C)=O)cc2)cc1S(=O)(=O)N1CCOCC1` was greater than 0.0719 mg/mL.
The value for `Cl.O=C(CCCN1CCOC(c2ccccc2)C1)c1ccc(F)cc1` (centres undefined) was 0.0503 mg/mL.
The value for `Cn1cnc(S(=O)(=O)N2CCN(c3ccc(F)cc3)CC2)c1` was greater than 0.0487 mg/mL.
In turn, `CC1CCN(C(=O)C2COc3ccccc3O2)CC1` (centres undefined) displayed a solubility (kinetic) greater than 0.0392 mg/mL.
The value for `Cc1ccccc1OCCC(=O)OCC(=O)NC1CCCCC1` was greater than 0.0479 mg/mL; that for `O=c1c(N2CCOCC2)c(N2CCOCC2)c1=O` was greater than 0.0378 mg/mL; that for `O=C(COC(=O)C12CC3CC(CC(O)(C3)C1)C2)Nc1ccc(Cl)c(S(=O)(=O)N2CCOCC2)c1` was greater than 0.077 mg/mL.
Compound `Cc1cc(C(=O)CSc2nc(N)cc(=O)[nH]2)c(C)n1CC1CCCO1` (centres undefined) had a solubility (kinetic) greater than 0.0544 mg/mL.
With `O=C(OCc1c(F)cccc1Cl)c1cnc2ccccc2n1` the figure was 0.0018 mg/mL (≈ 5.68 µM).
The value for `O=C(c1cc2c(ccc3ccccc32)o1)N1CCCCC1` was 0.0026 mg/mL (≈ 9.31 µM); that for `COc1ccc(NC(=S)Nc2cc(C(F)(F)F)ccc2F)cc1` was 0.0087 mg/mL (≈ 25.3 µM); that for `COc1ccc(S(N)(=O)=O)cc1C(=O)OCC(=O)N1c2ccccc2NC(=O)C1(C)C` was greater than 0.0671 mg/mL.
With `CC1(C)OC(C)(C)/C(=C\c2ccccc2[N+](=O)[O-])C1=O` the figure was 0.0277 mg/mL (≈ 101 µM); with `Nc1nc(Nc2cccc(F)c2)nc(NCCO)c1[N+](=O)[O-]`, 0.0128 mg/mL (≈ 41.5 µM); with `CCN1CCN(Cc2c3ccccc3cc3ccccc23)CC1`, 0.0279 mg/mL (≈ 91.6 µM).
In turn, `Cc1ccc(-c2nc(NCC3CCCO3)sc2C)cc1` (centres undefined) had a solubility (kinetic) of 0.0242 mg/mL (≈ 83.9 µM).
With `CC(C)(C(=O)c1cccnc1)c1cccnc1` the figure was greater than 0.0339 mg/mL.
The value for `Nc1cccc(CCc2ccncc2)c1` was greater than 0.0297 mg/mL.
